We go through one compound from paper PMC12195740, “Discovery of Novel Imidazothiazole-Based Hydroxamic Acid Derivatives as Potent Indoleamine 2,3-Dioxygenase 1 and Histone Deacetylase 6 Dual Inhibitors” (Molecules, 2025).

Data set [1] has as its target T1, rhIDO1 (Homo sapiens, UniProt P14902).
T1 construct: purchased
In words: IDO1 inhibition assay. Particulars: means ± S.D. of three independent experiments. In kind it is biochemical. On the procedure: Section S1. Biological assays […]
Section S 1.2 IDO1 inhibition assays
IDO1 inhibition assays were carried out according to the manufacturers’ procedures, as described previously. The standard assay mixture (100 μL) contained 50 mM of potassium phosphate buffer (pH = 6.5), 10 mM ascorbate, 10 μM methylene blue, 100 μg/mL catalase, 1 mM L-tryptophan and 10 μg/mL of rhIDO1. The plate was incubated at 37 °C in a dark environment, and reactions were terminated after 60 min by the addition of 50 μL of fluorogenic developer solution and further incubated at 45 °C in dark for 3 h. Then, the plate was allowed to cool to room temperature for at least 1 h. After centrifugation at 1500g for 5 min at 20 °C, the fluorescence […]
M1000 Pro, Tecan US, Morrisville, NC) in an end-point mode. […]

Data set [2] deals with T2, HDAC11 (Homo sapiens, UniProt Q96DB2).
T2 sequence (Q96DB2 1-347): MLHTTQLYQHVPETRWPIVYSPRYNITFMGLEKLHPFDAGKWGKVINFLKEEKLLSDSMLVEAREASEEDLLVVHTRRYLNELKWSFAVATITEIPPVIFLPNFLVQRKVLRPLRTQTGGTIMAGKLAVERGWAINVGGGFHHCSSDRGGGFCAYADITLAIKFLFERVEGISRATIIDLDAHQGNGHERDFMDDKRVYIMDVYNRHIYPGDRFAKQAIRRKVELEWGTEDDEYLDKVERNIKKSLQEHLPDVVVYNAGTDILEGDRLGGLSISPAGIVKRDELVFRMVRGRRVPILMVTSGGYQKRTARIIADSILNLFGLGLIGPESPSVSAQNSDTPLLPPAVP
The data set is described as follows: HDAC isoform selectivity assay, HDAC11. Type of data set: biochemical. The following applies: read-out: HDAC11 % inhibition rate at 10 μM.

The test system of data set [3] is CT26 tumors. The data set is described as follows: In vivo antitumor efficacy, CT26 tumor-bearing BALB/c mice. The following applies: 150 mg/kg ip every 3 days for 21 days. How it is done: (§1) After that, fixed cells were washed with PBS. Then, cells were isolated by centrifugation and stained with propidium iodide (KeyGEN BioTECH, China) for 30 min. The samples were measured using flow cytometry and analyzed by Flowjo software.
(§2) Section S 1.6 Western blot assay […]
(§3) earlier were obtained by lysing the cells in ice-cold RIPA buffer with protease and phosphatase inhibitor and stored at -20°C for future use. The protein concentrations were quantified by the Bradford method (Bio-Rad) using a Multimode Varioscan instrument (Thermo Fischer Scientific). […]
(§4) and transferred to a polyvinylidene difluoride (PVDF) membrane (Amersham Biosciences). After the membrane was blocked at room temperature for 2 h in blocking solution, primary antibody was added and incubated at 4°C overnight. Ac-α-tubulin, Ac-histone H3 and GAPDH antibodies were purchased from Imgenex, USA. After three TBST washes, the membrane was incubated with corresponding horseradish peroxidase-labeled secondary antibody (1:2,000) (Santa Cruz) at room temperature for 1 h. Membranes were washed with TBST three times for 15 min and the protein bands were detected with chemiluminescence reagent (Thermo Fischer Scientific). The X-ray films were developed using developer and fixed with fixer solution.
(§5) Section S 1.7 In vivo antitumor efficacy […]
line CT-26 in BALB/c mice as described previously. […]

A short description of data set [4]: General toxicity in CT26 tumor-bearing BALB/c mice (body weight, H&E of organs). In kind it is in vivo. Particulars: 150 mg/kg ip every 3 days for 21 days. How it is done:
as §1, §2, §3, §4, §5
line CT-26 in BALB/c mice as described previously. Five-week-old male BALB/c mice were purchased from the Shanghai Ling Chang biotechnology company (China), and tumors were induced through subcutaneous injection of 1 × 10^7 cells in 100 µL of sterile PBS into the dorsal region. The animals were divided into four groups, starting on the second day. When the tumors reached a volume of 50−100 mm3 in all mice, the first group was administered intraperitoneally with an equivalent volume of 5% dextrose as the vehicle control. The second group was treated with […]
treated with complex 10e at doses of 150 mg/kg body weight once every 3 days for 3 weeks, respectively. All compounds were dissolved in vehicle. Tumor volumes and body weights were […]

In data set [5] the test system is SW480 cells. In words: Cell viability (MTT) assay, SW480. The following applies: Homo sapiens, SW480, 48 h, read-out: Antiproliferative IC50, SW480.
Method: Section S 1.3 Cell viability assays
(§6) Cell Bank at the Chinese Academy of Sciences.
(§7) DMEM and FBS were obtained from Gibco-Thermo (BRL Co. Ltd., USA).
(§8) another 48 h. The cells were stained with 10 μl of MTT at incubator for approximately 4 h. The medium was discarded and replaced by 100 mL DMSO. The O.D. value was read at 570/630 nm with a spectrophotometer.
Data set [6] deals with MCF-7 cells. The data set is described as follows: Cell viability (MTT) assay, MCF-7. The following applies: Homo sapiens, MCF7, 48 h, read-out: Antiproliferative IC50, MCF-7.
Method: Section S 1.3 Cell viability assays
as §6, §7, §8
In data set [7] the test system is MDA-MB-231 cells. The data set is described as follows: Cell viability (MTT) assay, MDA-MB-231. Particulars: Homo sapiens, MDA-MB-231, 48 h, read-out: Antiproliferative IC50, MDA-MB-231.
Method: Section S 1.3 Cell viability assays
as §6, §7, §8

T1 sequence (P14902 whole entry): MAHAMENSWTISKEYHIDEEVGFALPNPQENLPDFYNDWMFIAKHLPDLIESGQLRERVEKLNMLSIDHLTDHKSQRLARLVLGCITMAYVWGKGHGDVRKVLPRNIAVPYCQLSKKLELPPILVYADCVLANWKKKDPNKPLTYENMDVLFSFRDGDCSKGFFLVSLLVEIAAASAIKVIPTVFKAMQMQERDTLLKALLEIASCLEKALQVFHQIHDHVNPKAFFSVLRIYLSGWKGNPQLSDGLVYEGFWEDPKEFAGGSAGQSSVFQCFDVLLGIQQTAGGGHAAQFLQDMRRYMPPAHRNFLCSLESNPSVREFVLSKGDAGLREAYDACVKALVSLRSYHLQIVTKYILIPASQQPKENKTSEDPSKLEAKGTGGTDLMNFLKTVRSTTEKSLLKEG

Broadly, the IC50 is the point on the concentration scale where inhibition reaches its midpoint. What is called inhibition is the share of the control response that was lost under treatment. With `O=C(CCCCCCNc1ccc(NC(=O)c2cnc3scc(-c4ccc(Br)cc4)n23)cc1)NO` [Compound 10e, 3-(4-Bromophenyl)-N-{4-[(7-(hydroxyamino)-7-oxoheptyl)amino]phenyl}imidazo[2,1-b]thiazole-5-carboxamide], the IC50 in data set [1] was determined as 86 ± 20 nM; in data set [5], 23.4 ± 3.86 µM; in data set [6], 36.5 ± 5.45 µM; in data set [7] it was 43.7 ± 1.89 µM. In addition, the inhibition at 10 µM in data set [2] came out at 24.4%. Besides, the “relative tumor volume growth rate (T/C)” value in data set [3] turned out to be 38.32%. In addition, in data set [3], the “tumor growth inhibition (TGI)” value is recorded as 60.2%. For the same compound, the “histology of liver, spleen, and kidney (H&E staining)” value in data set [4] is reported as “no obvious histological differences”. Further, the “influence on body weight of the mice” value in data set [4] (versus vehicle group) is “no obvious influence”.
